According to ChEMBL document CHEMBL2073762, “Carrier-mediated mechanism for the biliary excretion of the quinolone antibiotic grepafloxacin and its glucuronide in rats” (J Pharmacol Exp Ther, 1998):
Blank lines part the entries; values can stand above or below the molecule they belong to.

Experiments:
[1] = target: T1, ATP-binding cassette sub-family C member 2 (Rattus norvegicus, UniProt Q63120); experiment: TP_TRANSPORTER: inhibition of DNP-SG uptake in bile canalicular membrane vesicles from SD rat; type: functional, cell membranes, Sprague-Dawley, Bile canalicular membrane vesicle
[2] = target: T1, ATP-binding cassette sub-family C member 2; experiment: TP_TRANSPORTER: uptake in bile canalicular membrane vesicles from EHBR rat; type: functional, cell membranes, Bile canalicular membrane vesicle
[3] = target: T1, ATP-binding cassette sub-family C member 2; experiment: TP_TRANSPORTER: uptake in bile canalicular membrane vesicles from SD rat; type: functional, cell membranes, Sprague-Dawley, Bile canalicular membrane vesicle
[4] = target: T1, ATP-binding cassette sub-family C member 2; experiment: TP_TRANSPORTER: inhibition of DNP-SG uptake (DNP-SG: 1 uM, LFLX: 10000uM) in bile canalicular membrane vesicles from EHBR rat; type: functional, cell membranes, Bile canalicular membrane vesicle
[5] = target: T1, ATP-binding cassette sub-family C member 2; experiment: TP_TRANSPORTER: inhibition of DNP-SG uptake (DNP-SG: 1 uM, LFLX: 10000uM) in bile canalicular membrane vesicles from SD rat; type: functional, cell membranes, Sprague-Dawley, Bile canalicular membrane vesicle
[6] = target: T1, ATP-binding cassette sub-family C member 2; experiment: TP_TRANSPORTER: inhibition of DNP-SG uptakee (DNP-SG: 1 uM, OFLX: 10000 uM) in bile canalicular membrane vesicles from SD rat; type: functional, cell membranes, Sprague-Dawley, Bile canalicular membrane vesicle
[7] = target: ATP-binding cassette sub-family C member 2 (ABCC2/Mrp2) (Rattus norvegicus, UniProt Q63120); experiment: TP_TRANSPORTER: inhibition of DNP-SG uptakee (DNP-SG: 1 uM, SPFX: 3000 uM) in bile canalicular membrane vesicles from EHBR rat; type: functional, cell membranes, Bile canalicular membrane vesicle; design: scale not given: the % may be the effect or the level left; settings: probe DNP-SG (1 uM), read-out: Activity
[8] = target: T1, ATP-binding cassette sub-family C member 2; experiment: TP_TRANSPORTER: inhibition of DNP-SG uptakee (DNP-SG: 1 uM, SPFX: 3000 uM) in bile canalicular membrane vesicles from SD rat; type: functional, cell membranes, Sprague-Dawley, Bile canalicular membrane vesicle; design: scale not given: the % may be the effect or the level left
[9] = substrate: Cc1c(F)c(N2CCNC(C)C2)cc2c1c(=O)c(C(=O)O[C@@H]1O[C@H](C(=O)O)[C@@H](O)[C@H](O)[C@H]1O)cn2C1CC1; experiment: TP_TRANSPORTER: uptake, high affinity component in bile canalicular membrane vesicles from SD rat; type: functional, cell membranes, Sprague-Dawley, Bile canalicular membrane vesicle

- Ki [1]: 9.2 µM
Molecule: Cc1c(F)c(N2CCNC(C)C2)cc2c1c(=O)c(C(=O)O[C@@H]1O[C@H](C(=O)O)[C@@H](O)[C@H](O)[C@H]1O)cn2C1CC1 (stereo not given in full) [GREPAFLOXACIN GLUCURONIDE]

- Ki [1]: 1890 µM
- Activity [2]: substrate [+]
- Activity [3]: substrate [+]
Molecule: Cc1c(F)c(N2CCNC(C)C2)cc2c1c(=O)c(C(=O)O)cn2C1CC1 (stereo not given) [GREPAFLOXACIN]

Molecule: CCn1cc(C(=O)O)c(=O)c2cc(F)c(N3CCNC(C)C3)c(F)c21 (stereo not given) [LOMEFLOXACIN]
- Activity [4]: inhibitor [(at a rough estimate) 50 % of control]
- Activity [5]: inhibitor [(at a rough estimate) 50 % of control]

Molecule: CC1COc2c(N3CCN(C)CC3)c(F)cc3c(=O)c(C(=O)O)cn1c23 (stereo not given) [OFLOXACIN]
- Activity [6]: inhibitor [(at a rough estimate) 50 % of control]

- activity at 3000 µM [7]: 60%
- Activity [8]: 60%
Molecule: C[C@@H]1CN(c2c(F)c(N)c3c(=O)c(C(=O)O)cn(C4CC4)c3c2F)C[C@H](C)N1 [SPARFLOXACIN]

B1: ATP-binding cassette sub-family C member 2 (Rattus norvegicus) (protein)
chain: MDKFCNSTFWDLSLLESPEADLPLCFEQTVLVWIPLGFLWLLAPWQLYSVYRSRTKRSSITKFYLAKQVFVVFLLILAAIDLSLALTEDTGQATVPPVRYTNPILYLCTWLLVLAVQHSRQWCVRKNSWFLSLFWILSVLCGVFQFQTLIRALLKDSKSNMAYSYLFFVSYGFQIVLLILTAFSGPSDSTQTPSVTASFLSSITFSWYDRTVLKGYKHPLTLEDVWDIDEGFKTRSVTSKFEAAMTKDLQKARQAFQRRLQKSQRKPEATLHGLNKKQSQSQDVLVLEEAKKKSEKTTKDYPKSWLIKSLFKTFHVVILKSFILKLIHDLLVFLNPQLLKLLIGFVKSSNSYVWFGYICAILMFAVTLIQSFCLQSYFQHCFVLGMCVRTTVMSSIYKKALTLSNLARKQYTIGETVNLMSVDSQKLMDATNYMQLVWSSVIQITLSIFFLWRELGPSILAGVGVMVLLIPVNGVLATKIRNIQVQNMKNKDKRLKIMNEILSGIKILKYFAWEPSFQEQVQGIRKKELKNLLRFGQLQSLLIFILQITPILVSVVTFSVYVLVDSANVLNAEKAFTSITLFNILRFPLSMLPMVTSSILQASVSVDRLERYLGGDDLDTSAIRRVSNFDKAVKFSEASFTWDPDLEATIQDVNLDIKPGQLVAVVGTVGSGKSSLVSAMLGEMENVHGHITIQGSTAYVPQQSWIQNGTIKDNILFGSEYNEKKYQQVLKACALLPDLEILPGGDMAEIGEKGINLSGGQKQRVSLARAAYQDADIYILDDPLSAVDAHVGKHIFNKVVGPNGLLAGKTRIFVTHGIHFLPQVDEIVVLGKGTILEKGSYRDLLDKKGVFARNWKTFMKHSGPEGEATVNNDSEAEDDDDGLIPTMEEIPEDAASLAMRRENSLRRTLSRSSRSSSRRGKSLKNSLKIKNVNVLKEKEKEVEGQKLIKKEFVETGKVKFSIYLKYLQAVGWWSILFIILFYGLNNVAFIGSNLWLSAWTSDSDNLNGTNNSSSHRDMRIGVFGALGLAQGICLLISTLWSIYACRNASKALHGQLLTNILRAPMRFFDTTPTGRIVNRFSGDISTVDDLLPQTLRSWMMCFFGIAGTLVMICMATPVFAIIIIPLSILYISVQVFYVATSRQLRRLDSVTKSPIYSHFSETVTGLPIIRAFEHQQRFLAWNEKQIDINQKCVFSWITSNRWLAIRLELVGNLVVFCSALLLVIYRKTLTGDVVGFVLSNALNITQTLNWLVRMTSEAETNIVAVERISEYINVENEAPWVTDKRPPADWPRHGEIQFNNYQVRYRPELDLVLKGITCNIKSGEKVGVVGRTGAGKSSLTNCLFRILESAGGQIIIDGIDVASIGLHDLRERLTIIPQDPILFSGSLRMNLDPFNKYSDEEVWRALELAHLRSFVSGLQLGLLSEVTEGGDNLSIGQRQLLCLGRAVLRKSKILVLDEATAAVDLETDSLIQTTIRKEFSQCTVITIAHRLHTIMDSDKIMVLDNGKIVEYGSPEELLSNRGSFYLMAKEAGIENVNHTEL
- Km [9]: 7.2 µM
